{"source": "patent US20250144186A1", "about": "“NOVEL THERAPEUTIC USES OF GARDNERELLA ENDOLYSINS” (priority 2022, published 2025)", "key": {"[1]": {"conditions": "0.75% MDZ vaginal gel over 16 weeks, cited from earlier work"}, "[2]": {"test_system": "Gardnerella strains from vaginal swabs of BV patients", "assay": "MIC and MBC99.5 on 18 in-house BV patient isolates", "format": "cell-based, Gardnerella spp.", "method": "The minimum inhibitory concentration (MIC), which is a standard measure of the activity of antimicrobials, was determined according to the Clinical and Laboratory Standards Institute protocol (2018) Methods for Antimicrobial Susceptibility Testing of Anaerobic Bacteria (Carpenter et al., 2018). […] Controls for growth in the absence of antimicrobials were also included. OD600 was recorded by a microplate reader (Tecan, Grodig, Austria) after incubation at 37° C. for 48 h or, for some fast-growing strains, after incubation for 24 h. Absence of growth was defined as OD600≤0.14. […] MIC readout and MBC99.5 spotting were performed after 72 h incubation for H2B10B11."}}, "note": "Like-named read-outs stand apart in the source and are kept apart here."}
{"smiles": "Cc1ncc([N+](=O)[O-])n1CCO", "note": "[MDZ, metronidazole]", "values": [{"measurement": "probability of lasting cure", "setting": "[1]; 12 weeks after end of therapy (week 28)", "result": 34, "unit": "%"}, {"measurement": "probability of lasting cure", "setting": "[1]; after 16 weeks", "result": 70, "unit": "%"}, {"measurement": "MIC", "setting": "[2]; Gardnerella, 72 h, 18 in-house BV patient isolates, read-out: median MIC", "result": 64, "unit": "µg/mL"}, {"measurement": "MBC", "setting": "[2]; Gardnerella, 18 in-house BV patient isolates, read-out: median MBC99.5", "result": 1540, "unit": "µg/mL"}, {"measurement": "number of resistant isolates (MIC>32 μg/mL)", "setting": "[2]; panel of 18 isolates from vaginal swabs of BV patients", "result": 10}]}
